# In US9079913B2, “Spiro-oxindole MDM2 antagonists” (The Regents of the University of Michigan, priority 2009, dated 2015):
# Like-named read-outs stand apart in the source and are kept apart here.
# Tests used:
# [1] = molecular target: recombinant human His-tagged MDM2 protein (residues 1-118) (Homo sapiens (Human), UniProt Q00987); assay: Fluorescence-polarization MDM2 binding assay;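 note: fluorescence polarization read after three hours of incubation in potassium phosphate buffer containing bovine gamma globulin and Triton X-100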
# Procedure: The assay was performed in the buffer: 100 mM potassium phosphate, pH 7.5; 100 μg/mL bovine gamma globulin; 0.02% sodium azide, 0.01% Triton X-100) and the polarization values were measured after 3 h of incubation using an ULTRA READER (Tecan U.S. Inc., Research Triangle Park, N.C.). […] The Kd value was calculated using the equation: Kd value=IC50−L0/2.
# The polarization values were measured after 3 h of incubation. […] Curve fitting was performed using [sequence] PRISM software (GraphPad Software, Inc., San Diego, Calif.). […] Compounds shown in Tables 19A-D as the free base were tested either as the free base or as the CF3CO2H (TFA) or HCl salt.
# [2] = system: cancer cell lines with wild-type p53 / mutated or deleted p53 (ATCC); assay: Cell growth assay (WST-8), other cancer cell lines; format: cell-based; settings: Homo sapiens
# [3] = system: Isogenic HCT-116 colon cancer cell lines; assay: cells; format: cell-based; settings: Homo sapiens;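 note: cells grown in 96-well plates in McCoy's 5A medium with 10% FBS, exposed to compound for 4 days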
# Procedure: Cells were seeded in 96-well flat bottom cell culture plates at a density of 2−3×10^3 cells/well with compounds and incubated for 4 days.
# [4] = Table 19A, FP binding assay, read-out: MDM2 IC50
# [5] = LNCaP, Table 19A, LNCAP cells, p53 wild-type, cell growth, read-out: LNCAP (p53 wild-type) IC50
# [6] = PC-3, Table 19A, PC-3 cells, deleted p53, cell growth, read-out: PC-3 (deleted p53) IC50
# [7] = SJSA-1, Table 19A, SJSA-1 cells, p53 wild-type, cell growth, read-out: SJSA-1 (p53 wild-type) IC50
# [8] = HCT-116, read-out: HCT-116 (p53-/-) IC50, Table 19A, HCT-116 p53-/-, cell growth
# [9] = HCT-116, read-out: HCT-116 (p53 wild-type) IC50, Table 19A, HCT-116 p53 wild-type, cell growth
# [10] = Table 19D, read-out: MDM2 Binding Affinities IC50
# [11] = LNCaP, Table 19D, LNCaP cells, read-out: LNCaP IC50
# [12] = PC-3, Table 19D, PC3 cells, read-out: PC3 IC50
# [13] = HCT-116, read-out: HCT116p53KO IC50, Table 19D, HCT116 p53KO
# [14] = HCT-116, read-out: HCT116p53WT IC50, Table 19D, HCT116 p53WT
# [15] = Table 19B, read-out: Binding affinities to MDM2 protein as determined by FP based assay IC50
# [16] = LNCaP, Table 19B, LNCaP cells, read-out: Inhibition of cell growth IC50, LNCaP
# [17] = PC-3, Table 19B, PC3 cells, read-out: Inhibition of cell growth IC50, PC3
# [18] = HCT-116, read-out: Inhibition of cell growth IC50, HCT116 p53 KO, Table 19B, HCT116 p53 KO
# [19] = HCT-116, read-out: Inhibition of cell growth IC50, HCT116 p53 WT, Table 19B, HCT116 p53 WT
# Chain of recombinant human His-tagged MDM2 protein (residues 1-118) (Q00987 1-118): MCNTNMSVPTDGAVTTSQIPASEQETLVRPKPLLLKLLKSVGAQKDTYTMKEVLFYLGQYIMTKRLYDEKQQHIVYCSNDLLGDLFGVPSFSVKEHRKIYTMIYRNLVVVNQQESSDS
SMILES,"IC50 [1, 4] [µM]","IC50 [2, 5] [µM]","IC50 [2, 6] [µM]","IC50 [2, 7] [µM]","IC50 [3, 8] [µM]","IC50 [3, 9] [µM]","IC50 [1, 15] [µM]","IC50 [2, 16] [µM]","IC50 [2, 17] [µM]","IC50 [3, 18] [µM]","IC50 [3, 19] [µM]",other results
CC(C)(C)C[C@H]1N[C@@H](C(=O)NCC[C@](C)(O)CO)[C@H](c2cccc(Cl)c2F)[C@@]12C(=O)Nc1cc(Cl)ccc12 [MI-789],< 3,< 3,> 10,< 3,> 10,< 3,,,,,,
CC(C)(C)C[C@H]1N[C@@H](CO)[C@H](c2cccc(Cl)c2)[C@@]12C(=O)Nc1cc(Cl)c(F)cc12 [MI-519-20],,,,,,,,,,,,"IC50 [1, 10]: < 5 µM; IC50 [2, 11]: 2.2 ± 0.2 µM; IC50 [2, 12]: 9 ± 1.1 µM; IC50 [3, 13]: 13.4 ± 0.8 µM; IC50 [3, 14]: 1.9 ± 0.1 µM"
CC(C)(C)C[C@H]1N[C@@H](C(=O)NCC[C@H](O)CO)[C@H](c2cccc(Cl)c2F)[C@@]12C(=O)Nc1cc(F)c(F)cc12 [MI-519-10],,,,,,,,,,,,"IC50 [1, 10]: < 3 µM; IC50 [2, 11]: < 3 µM; IC50 [2, 12]: > 10 µM; IC50 [3, 13]: > 10 µM; IC50 [3, 14]: < 3 µM"
CC(=O)OC(C)(C)C(=O)N1CC(NC(=O)[C@@H]2N[C@H](CC(C)(C)C)[C@]3(C(=O)Nc4cc(Cl)ccc43)[C@H]2c2cccc(Cl)c2F)C1 [MI-914],< 1,< 3,> 5,< 3,> 10,< 3,,,,,,
CC(C)(C)C[C@H]1N[C@@H](C(=O)N2CCN(C(=O)C3CC3)CC2)[C@H](c2cccc(Cl)c2)[C@@]12C(=O)Nc1cc(Cl)c(F)cc12 [MI-743],,,,,,,> 1,2.5 ± 0.5,7.7 ± 3.1,5.7 ± 3.4,2.4 ± 0.2,
CC(C)(C)C[C@H]1N[C@@H](C(=O)N2CCNCC2)[C@H](c2cccc(Cl)c2)[C@@]12C(=O)Nc1cc(Cl)c(F)cc12 [MI-739],< 5,1.5 ± 0.5,3.2 ± 0.7,,3 ± 0.2,2.1 ± 0.6,,,,,,
CC(C)(C)C[C@H]1N[C@@H](C(=O)NC2CCC(OC(=O)C(C)(C)N)CC2)[C@H](c2cccc(Cl)c2F)[C@@]12C(=O)Nc1cc(Cl)ccc12 (stereo partly shown) [MI-907],< 1,< 3,3,< 3,7,< 3,,,,,,
CC(C)CC(C)(C)C[C@H]1N[C@@H](C(=O)NCCN2CCOCC2)[C@H](c2cccc(Cl)c2F)[C@@]12C(=O)Nc1cc(F)c(F)cc12 [MI-730],,,,,,,< 1,1.7 ± 0.5,6.3 ± 1.4,7.8 ± 0.7,1.4 ± 0.3,
CC(C)(C)C[C@H]1N[C@@H](C(=O)NCCC(=O)CO)[C@H](c2cccc(Cl)c2)[C@@]12C(=O)Nc1cc(Cl)c(F)cc12 [MI-219-M1 (b)],< 1,< 3,> 10,,> 10,< 3,,,,,,
CC(C)(C)C[C@H]1N[C@@H](C(=O)NC2CCN(CCO)CC2)[C@H](c2cccc(Cl)c2F)[C@@]12C(=O)Nc1cc(Cl)ccc12 [MI-784],< 0.5,,,0.7,10.3,0.4,,,,,,
O=C(NCC[C@H](O)CO)[C@@H]1N[C@H](CCc2ccccc2)[C@]2(C(=O)Nc3cc(Cl)c(F)cc32)[C@H]1c1cccc(Cl)c1 [MI-701],,,,,,,> 10,3 ± 3.5,48.9 ± 22.4,33.8 ± 14.6,16.7 ± 13,
CCCCC(C)(C)C[C@H]1N(C)[C@@H](C(=O)NCC[C@H](O)CO)[C@H](c2cccc(Cl)c2)[C@@]12C(=O)Nc1cc(Cl)c(F)cc12 [MI-728],,,,,,,< 5,2.1 ± 0.1,7.1 ± 2,16.9 ± 5.6,4 ± 0.8,
CC(C)(C)C[C@H]1N[C@@H](C(=O)NC[C@H](O)[C@H](O)CO)[C@H](Cc2cccc(Cl)c2)[C@@]12C(=O)Nc1cc(Cl)c(F)cc12 [MI-319-24],,,,,,,,,,,,"IC50 ([1]; Table 19C, read-out: Bidning affinities to MDM2 as determined using FP assay IC50): < 1 µM; IC50 ([2]; LNCaP, Table 19C, LNCaP cells, read-out: Cell growth inhibition using WST assay, LNCaP IC50): < 5 µM; IC50 ([2]; PC-3, Table 19C, PC3 cells, read-out: Cell growth inhibition using WST assay, PC3 IC50): > 10 µM; IC50 ([3]; HCT-116, read-out: Cell growth inhibition using WST assay, HCT116 p53KO IC50, Table 19C, HCT116 p53KO): > 10 µM; IC50 ([3]; HCT-116, read-out: Cell growth inhibition using WST assay, HCT116 p53WT IC50, Table 19C, HCT116 p53WT): < 5 µM"
